Results: US8017612B2, “Piperazine compound and use thereof as a HCV polymerase inhibitor” (priority 2006, dated 2011)

Legend:
[1] = target: T1, HCV polymerase (NS5B) type 1b (Hepatitis C virus genotype 1b, UniProt P26663); experiment: Assay of enzyme (HCV polymerase) inhibitory activity, type 1b enzyme; format: biochemical, HCV BK strain (type 1b)
T1 construct: a region encoding NS5B (J Virol 1991 March, 65(3), 1105-13, 544 amino acids after deletion of 47 amino acids on the C-terminal); 6xHis (C); made in house; host or cells: Escherichia coli
Outline: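 NS5B from HCV BK strain (type 1b), C-terminal 47 aa deleted, C-terminal His6-tagged, E. coli-expressed, 0.5 μg/ml, with ~450 nt substrate RNA carrying the 3′ UTR (polyU, 3′X) at 5 μg/ml. Incubation 60 min at 25 °C with 50 μM ATP/GTP/CTP, 2 μM UTP plus [3H]UTP, pH 7.5 Tris.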

[2] = target: T2, HCV polymerase (NS5B) type 1a (Hepatitis C virus genotype 1a, UniProt P26664); experiment: Assay of enzyme (HCV polymerase) inhibitory activity, type 1a enzyme; format: biochemical, HCV type 1a (cloned from the blood of patients)
T2 construct: made in house; host or cells: Escherichia coli (by the 'similar method' of the 1b enzyme)
Outline: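 Patient-derived type 1a NS5B (C-terminal 47-aa deletion, His-tagged, E. coli-expressed) at 1.5 μg/ml was reacted with 5 μg/ml 3′UTR-containing substrate RNA, 50 μM ATP/GTP/CTP, 2 μM UTP plus [3H]UTP, pH 7.5, 25° C for 60 min. TCA-precipitated RNA radioactivity was counted; IC50 from ± compound.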

[3] = HCV polymerase inhibitory activity IC50, 1b, type 1b enzyme
[4] = HCV polymerase inhibitory activity IC50, 1a, type 1a enzyme
[5] = HCV polymerase inhibitory activity (IC50), 1b, type 1b enzyme 0.5 μg/ml, 25° C., 60 min
[6] = HCV polymerase inhibitory activity (IC50), 1a, type 1a enzyme 1.5 μg/ml, 25° C., 60 min

Structure (SMILES) | IC50 [1, 3] [nM] | IC50 [2, 4] [nM] | IC50 [1, 5] [nM] | IC50 [2, 6] [nM]
CC(C)c1ncc2sc(N3CCN(S(=O)(=O)c4ccc(C(F)(F)F)cc4)[C@@H](C(=O)NCc4ccc(OC(F)(F)F)cc4)C3)nc2n1 [Example 991, (R)-4-(5-isopropyl-thiazolo[4,5-d]pyrimidin-2-yl)-1-(4-trifluoromethyl-benzenesulfonyl)-piperazine-2-carboxylic acid 4-trifluoromethoxy-benzylamide] | < 100 | < 100 | – | –
CC(C)c1ccc(S(=O)(=O)N2CCN(C(=O)N(C)C)CC2C(=O)NCc2ccc(C(F)(F)F)cc2)cc1 (stereo not drawn) [Example 59, 4-(4-isopropyl-benzenesulfonyl)-piperazine-1,3-dicarboxylic acid 1-dimethylamide 3-(4-trifluoromethyl-benzylamide)] | – | – | > 1000 | > 1000
CC(=O)N1CCN(S(=O)(=O)c2ccc(C(=O)O)cc2)C(C(=O)NCc2ccc(C(F)(F)F)cc2)C1 (stereo not drawn) [Example 107, 4-[4-acetyl-2-(4-trifluoromethyl-benzylcarbamoyl)-piperazine-1-sulfonyl]-benzoic acid] | – | – | > 1000 | > 1000
CC(C)c1ccc(CNC(=O)[C@H]2CN(C3CC(=O)NC3=O)CCN2S(=O)(=O)c2ccc(C(F)(F)F)cc2)cc1 (stereo partly drawn) [Example 147, (R)-4-(2,5-dioxo-pyrrolidin-3-yl)-1-(4-trifluoromethyl-benzenesulfonyl)-piperazine-2-carboxylic acid 4-isopropyl-benzylamide] | – | – | 100 to 1000 | > 1000
CN(C)c1ccc(CNC(=O)C2CN(CC(=O)O)CCN2S(=O)(=O)c2ccc(I)cc2)cc1 (stereo not drawn) [Example 96, [3-(4-dimethylamino-benzylcarbamoyl)-4-(4-iodo-benzenesulfonyl)-piperazin-1-yl]-acetic acid] | – | – | > 1000 | > 1000
O=C(NCc1ccc(OC(F)(F)F)c(F)c1)[C@H]1CN(c2nc3nc(C4CC4)ncc3s2)CCN1S(=O)(=O)c1ccc(C(F)(F)F)cc1 [Example 1101, (R)-4-(5-cyclopropyl-thiazolo[4,5-d]pyrimidin-2-yl)-1-(4-trifluoromethyl-benzenesulfonyl)-piperazine-2-carboxylic acid 3-fluoro-4-trifluoromethoxy-benzylamide] | < 100 | < 100 | – | –
NC(=O)c1cncc2ncc(N3CCN(S(=O)(=O)c4ccc(OC(F)(F)F)cc4)[C@@H](C(=O)NCc4ccc(OC(F)(F)F)cc4)C3)nc12 [Example 807, 2-[(R)-4-(4-trifluoromethoxy-benzenesulfonyl)-3-(4-trifluoromethoxy-benzylcarbamoyl)-piperazin-1-yl]-pyrido[3,4-b]pyrazine-8-carboxylic acid amide] | < 100 | < 100 | – | –
O=C(NCc1ccc(OC(F)(F)F)cc1)[C@H]1CN(c2nc3ncncc3s2)CCN1S(=O)(=O)c1ccc(OC(F)(F)F)cc1 [Example 801, (R)-4-thiazolo[4,5-d]pyrimidin-2-yl-1-(4-trifluoromethoxy-benzenesulfonyl)-piperazine-2-carboxylic acid 4-trifluoromethoxy-benzylamide] | < 100 | < 100 | – | –
CC(=O)N1CCN(S(=O)(=O)c2cccc(-c3ccccc3)c2)C(C(=O)NCc2ccc(C(F)(F)F)cc2)C1 (stereo not drawn) [Example 42, 4-acetyl-1-(biphenyl-3-sulfonyl)-piperazine-2-carboxylic acid 4-trifluoromethyl-benzylamide] | – | – | > 1000 | > 1000
CCCc1ccc(S(=O)(=O)N2CCN(C(=O)Nc3ccncc3)C[C@@H]2C(=O)NCc2ccc(C(C)C)cc2)cc1 [Example 295, (R)-4-(4-propyl-benzenesulfonyl)-piperazine-1,3-dicarboxylic acid 3-(4-isopropyl-benzylamide) 1-pyridin-4-ylamide] | – | – | < 100 | < 100
Cc1cc(=O)nc2sc(N3CCN(S(=O)(=O)c4ccc(C(F)(F)F)cc4)[C@@H](C(=O)NCc4ccc(OC(F)F)cc4)C3)nn12 [Example 1032, (R)-4-(5-methyl-7-oxo-7H-[1,3,4]thiadiazolo[3,2-a]pyrimidin-2-yl)-1-(4-trifluoromethyl-benzenesulfonyl)-piperazine-2-carboxylic acid 4-difluoromethoxy-benzylamide] | < 100 | < 100 | – | –
CC(=O)N1CCN(S(=O)(=O)c2ccc(C(C)C)cc2)C(C(=O)NCCCc2ccccc2)C1 (stereo not drawn) [Example 145, 4-acetyl-1-(4-isopropyl-benzenesulfonyl)-piperazine-2-carboxylic acid (3-phenyl-propyl)-amide] | – | – | > 1000 | > 1000
CCC(F)(F)c1ccc(CNC(=O)[C@H]2CN(C(=O)Nc3ccnc(C(F)(F)F)c3)CCN2S(=O)(=O)c2ccc(OC(F)(F)F)cc2)cc1 [Example 555, (R)-4-(4-trifluoromethoxy-benzenesulfonyl)-piperazine-1,3-dicarboxylic acid 3-[4-(1,1-difluoro-propyl)-benzylamide] 1-[(2-trifluoromethyl-pyridin-4-yl)-amide]] | – | – | 100 to 1000 | 100 to 1000
O=C(NCc1ccc(-c2ccccc2)cc1)[C@H]1CN(c2cnc3cncnc3n2)CCN1S(=O)(=O)c1ccc(OC(F)(F)F)cc1 [Example 663, (R)-4-pteridin-7-yl-1-(4-trifluoromethoxy-benzenesulfonyl)-piperazine-2-carboxylic acid (biphenyl-4-ylmethyl)-amide] | < 100 | < 100 | – | –
CCCc1ccc(CNC(=O)[C@H]2CN(c3cnc4cncc(C(=O)O)c4n3)CCN2S(=O)(=O)c2ccc(C(F)(F)F)cc2)cc1 [Example 842, 2-[(R)-3-(4-propyl-benzylcarbamoyl)-4-(4-trifluoromethyl-benzenesulfonyl)-piperazin-1-yl]-pyrido[3,4-b]pyrazine-8-carboxylic acid] | < 100 | < 100 | – | –
CCC(F)(F)c1ccc(CNC(=O)[C@H]2CN(C(C)=O)CCN2S(=O)(=O)c2ccc(OC(F)(F)F)cc2)cc1 [Example 459, (R)-4-acetyl-1-(4-trifluoromethoxy-benzenesulfonyl)-piperazine-2-carboxylic acid 4-(1,1-difluoro-propyl)-benzylamide] | – | – | < 100 | < 100
CCC(F)(F)c1ccc(CNC(=O)[C@H]2CN(c3cnc(C(N)=O)cn3)CCN2S(=O)(=O)c2ccc(OC(F)(F)F)cc2)cc1 [Example 586, (R)-4-(4-trifluoromethoxy-benzenesulfonyl)-3,4,5,6-tetrahydro-2H-[1,2′]bipyrazinyl-3,5′-dicarboxylic acid 5′-amide 3-[4-(1,1-difluoro-propyl)-benzylamide]] | – | – | < 100 | < 100
CC(=O)N1CCN(S(=O)(=O)c2cccc(C(F)(F)F)c2)[C@@H](C(=O)NCc2ccc(C(C)C)cc2)C1 [Example 263, (R)-4-acetyl-1-(3-trifluoromethyl-benzenesulfonyl)-piperazine-2-carboxylic acid 4-isopropyl-benzylamide] | – | – | 100 to 1000 | 100 to 1000
CC(=O)N1CCN(S(=O)(=O)c2ccc(C(C)C)cc2)[C@@H](C(=O)NCc2ccc(C(C)C)cc2C)C1 [Example 291, (R)-4-acetyl-1-(4-isopropyl-benzenesulfonyl)-piperazine-2-carboxylic acid 4-isopropyl-2-methyl-benzylamide] | – | – | < 100 | < 100
CC(C)(C)c1ccc(CNC(=O)[C@H]2CN(C(=O)/C=C\C(=O)O)CCN2S(=O)(=O)c2ccc(OC(F)(F)F)cc2)cc1 [Example 665, (Z)-4-[(R)-3-(4-tert-butyl-benzylcarbamoyl)-4-(4-trifluoromethoxy-benzenesulfonyl)-piperazin-1-yl]-4-oxo-but-2-enoic acid] | > 1000 | > 1000 | – | –
CC(C)(C)c1ccc(CNC(=O)[C@H]2CN(c3cnc(C(=O)O)cn3)CCN2S(=O)(=O)c2ccc(OC(F)(F)F)cc2)cc1 [Example 501, (R)-3-(4-tert-butyl-benzylcarbamoyl)-4-(4-trifluoromethoxy-benzenesulfonyl)-3,4,5,6-tetrahydro-2H-[1,2′]bipyrazinyl-5′-carboxylic acid] | – | – | < 100 | < 100
Cc1nc2nc(N3CCN(S(=O)(=O)c4ccc(OC(F)(F)F)cc4)[C@@H](C(=O)NCc4ccc(OC(F)(F)F)cc4)C3)sc2c(=O)[nH]1 [Example 910, (R)-4-(5-methyl-7-oxo-6,7-dihydro-thiazolo[4,5-d]pyrimidin-2-yl)-1-(4-trifluoromethoxy-benzenesulfonyl)-piperazine-2-carboxylic acid 4-trifluoromethoxy-benzylamide] | < 100 | < 100 | – | –
COc1ccc(S(=O)(=O)N2CCN(C(C)=O)C[C@@H]2C(=O)NCc2ccc(C(C)C)cc2)cc1-c1nn[nH]n1 [Example 288, (R)-4-acetyl-1-[4-methoxy-3-(2H-tetrazol-5-yl)-benzenesulfonyl]-piperazine-2-carboxylic acid 4-isopropyl-benzylamide] | – | – | 100 to 1000 | 100 to 1000
CN(C)c1ccc(CNC(=O)[C@H]2CN(C(=O)CN3CCCC3)CCN2S(=O)(=O)c2ccc(I)cc2)cc1 [Example 159, (R)-1-(4-iodo-benzenesulfonyl)-4-(2-pyrrolidin-1-yl-acetyl)-piperazine-2-carboxylic acid 4-dimethylamino-benzylamide] | – | – | > 1000 | > 1000
